According to patent US20230113037A1 (Bayer Aktiengesellschaft, priority 2019, published 2023):
Where two headings read alike, the source gives them in different places.

How the values were obtained:
AHR [1] = target: T1, AHR (Homo sapiens, UniProt P35869); test: In vitro assay 1: antagonism in human cell line (AHR transactivation, firefly luciferase reporter, kynurenic acid prestimulated); type: cell-based; conditions: AHR Antagonism Human IC50 [M]
T1 construct: U87 MG glioblastoma cells (ATCC #HTB-14) endogenously expressing AHR; endogenous in cells; host or cells: U87 MG glioblastoma cells (ATCC #HTB-14)
T1 sequence (P35869 11-848): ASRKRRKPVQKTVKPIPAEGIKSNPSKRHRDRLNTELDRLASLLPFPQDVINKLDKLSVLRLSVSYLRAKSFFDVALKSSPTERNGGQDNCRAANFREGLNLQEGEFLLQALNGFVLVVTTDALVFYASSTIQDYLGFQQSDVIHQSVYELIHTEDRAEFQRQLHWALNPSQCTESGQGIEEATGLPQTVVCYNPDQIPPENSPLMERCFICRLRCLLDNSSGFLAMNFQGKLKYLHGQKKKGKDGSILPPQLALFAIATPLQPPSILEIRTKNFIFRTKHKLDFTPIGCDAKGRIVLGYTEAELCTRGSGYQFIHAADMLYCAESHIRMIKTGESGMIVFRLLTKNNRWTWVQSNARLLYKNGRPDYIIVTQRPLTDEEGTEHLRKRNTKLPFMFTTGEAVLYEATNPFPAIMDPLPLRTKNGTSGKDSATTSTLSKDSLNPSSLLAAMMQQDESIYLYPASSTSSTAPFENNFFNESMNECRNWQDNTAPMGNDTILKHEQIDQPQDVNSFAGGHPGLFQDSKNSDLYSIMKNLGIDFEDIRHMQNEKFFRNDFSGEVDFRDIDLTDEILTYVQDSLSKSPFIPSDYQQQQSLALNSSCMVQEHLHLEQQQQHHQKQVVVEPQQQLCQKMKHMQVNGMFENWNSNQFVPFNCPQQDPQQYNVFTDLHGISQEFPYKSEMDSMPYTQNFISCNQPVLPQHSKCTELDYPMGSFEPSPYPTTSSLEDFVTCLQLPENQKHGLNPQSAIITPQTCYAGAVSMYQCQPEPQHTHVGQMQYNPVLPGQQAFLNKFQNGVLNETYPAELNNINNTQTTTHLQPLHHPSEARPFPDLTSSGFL
Summary of the method: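 Antagonism measured as loss of kynurenic acid-driven firefly luciferase from DRE reporter in stably transfected U87 MG cells; constitutive Renilla signal monitors cytotoxicity. Positive/negative control normalization, staurosporine 5 μM with 150 μM kynurenic acid as inhibition control; replicates given as mean or median.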

AHR [2] = target: T2, AHR (Mus musculus, UniProt P30561); test: In vitro assay 3: antagonism in mouse cell line (AHR transactivation, firefly luciferase reporter, kynurenic acid prestimulated); type: cell-based
T2 sequence (P30561 1-848 P471L/N533S/M589L): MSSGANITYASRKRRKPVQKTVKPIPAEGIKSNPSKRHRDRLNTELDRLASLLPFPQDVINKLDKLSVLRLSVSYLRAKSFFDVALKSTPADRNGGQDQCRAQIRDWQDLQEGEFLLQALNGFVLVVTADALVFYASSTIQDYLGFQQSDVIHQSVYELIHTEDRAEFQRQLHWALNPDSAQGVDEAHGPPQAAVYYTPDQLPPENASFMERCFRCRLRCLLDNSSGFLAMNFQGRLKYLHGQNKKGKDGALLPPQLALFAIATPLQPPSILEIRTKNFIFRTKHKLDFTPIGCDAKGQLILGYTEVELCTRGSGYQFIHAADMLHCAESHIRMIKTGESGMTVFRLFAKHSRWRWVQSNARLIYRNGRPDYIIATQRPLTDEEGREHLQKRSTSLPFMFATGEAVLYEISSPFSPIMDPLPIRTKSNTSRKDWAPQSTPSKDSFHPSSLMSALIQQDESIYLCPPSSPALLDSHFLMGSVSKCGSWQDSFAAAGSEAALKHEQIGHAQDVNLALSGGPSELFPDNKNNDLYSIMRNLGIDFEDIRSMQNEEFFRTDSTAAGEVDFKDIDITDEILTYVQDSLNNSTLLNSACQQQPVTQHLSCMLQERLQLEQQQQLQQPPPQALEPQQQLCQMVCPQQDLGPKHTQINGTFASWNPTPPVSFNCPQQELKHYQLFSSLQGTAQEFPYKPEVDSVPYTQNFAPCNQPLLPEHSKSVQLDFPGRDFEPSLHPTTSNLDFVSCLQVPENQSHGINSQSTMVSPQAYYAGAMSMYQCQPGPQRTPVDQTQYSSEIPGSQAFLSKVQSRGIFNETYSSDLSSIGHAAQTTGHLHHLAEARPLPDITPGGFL
Summary of the method: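 Luminescence from an AHR-dependent DRE-luciferase reporter, stably integrated in mouse cells, quantifies blockade of kynurenic acid-driven activation. Unstimulated cells mark maximal inhibition; normalization uses both control types, and multiply tested compounds carry mean or median values.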

[3] = mouse Hepa 1c1c7 cells, 200 μM kynurenic acid, 20 hours, read-out: AHR Antagonism Mouse IC50
[4] = Hepa 1c1c7 cells, 200 μM kynurenic acid, 20 hours, firefly luciferase reporter, read-out: AHR Antagonism Mouse IC50
[5] = read-out: AHR Antagonism Mouse IC50, mouse Hepa 1c1c7 cells, 200 μM kynurenic acid, 20 hours

IC50 (AHR [1]) | IC50 (AHR [2]; [3]) | SMILES | further results
9.09e-10 M | 2.21 nM | COc1ccc(-c2nc3c4c(Cl)cccc4nc(N[C@@H]4CCCCNC4=O)n3n2)cc1 [Example 168, (3R)-3-{[10-chloro-2-(4-methoxyphenyl)[1,2,4]triazolo[1,5-c]quinazolin-5-yl]amino}azepan-2-one] | –
1.26e-07 M | 107 nM | CCCCNC(=O)CNc1nc2ccccc2c2nc(-c3ccccc3OC(F)(F)F)nn12 [Example 466, N-butyl-N^2-{2-[2-(trifluoromethoxy)phenyl][1,2,4]triazolo[1,5-c]quinazolin-5-yl}glycinamide] | –
1.39e-07 M | 256 nM | COc1ccc(-c2nc3c4c(N5CCOCC5)cccc4nc(N[C@@H]4CCCCNC4=O)n3n2)cc1 [Example 655, (3R)-3-{[2-(4-methoxyphenyl)-10-(morpholin-4-yl)[1,2,4]triazolo[1,5-c]quinazolin-5-yl]amino}azepan-2-one] | –
– | – | CC(C)n1cc(-c2nc3c4cccc(C(F)(F)F)c4nc(N[C@@H]4CSCCNC4=O)n3n2)cn1 [Example 838, (6S)-6-({2-[1-(propan-2-yl)-1H-pyrazol-4-yl]-7-(trifluoromethyl)[1,2,4]triaozlo[1,5-c]quinazolin-5-yl}amino)-1,4-thiazepan-5-one] | IC50 (AHR [1]; firefly luciferase reporter): 9.63e-10 M; IC50 (AHR [2]; [4]): 2.02 nM
2.38e-07 M | 373 nM | COc1ccc(-c2nc3c4cccc(OC)c4nc(N[C@@H]4CNCCNC4=O)n3n2)cc1 [Example 265, (6R)-6-{[7-methoxy-2-(4-methoxyphenyl)[1,2,4]triazolo[1,5-c]quinazolin-5-yl]amino}-1,4-diazepan-5-one] | –
1.44e-09 M | 2.96 nM | N#Cc1ccccc1-c1nc2c3ccccc3nc(N[C@@H]3CCCCNC3=O)n2n1 [Example 619, 2-(5-{[(3R)-2-oxoazepan-3-yl]amino}[1,2,4]triazolo[1,5-c]quinazolin-2-yl)benzonitrile] | –
2.44e-09 M | 4.54 nM | COc1ccc(-c2nc3c4c(Br)cccc4nc(N[C@@H]4CCCCNC4=O)n3n2)cc1 [Example 164] | –
1.28e-07 M | 230 nM | O=C1NCCCC[C@H]1Nc1nc2c(F)cccc2c2nc(-c3ccncc3)nn12 [Example 552, (3R)-3-{[7-fluoro-2-(pyridin-4-yl)[1,2,4]triazolo[1,5-c]quinazolin-5-yl]amino}azepan-2-one] | –
7.97e-08 M | 292 nM | CCn1cc(-c2nc3c4cccc(OC)c4nc(N[C@@H]4CCCCNC4=O)n3n2)cn1 [Example 754, (3R)-3-{[2-(1-ethyl-1H-pyrazol-4-yl)-7-methoxy[1,2,4]triazolo[1,5-c]quinazolin-5-yl]amino}azepan-2-one] | –
3e-07 M | 2410 nM | COc1ccc(-c2nc3c4ccc(C(C)C)cc4nc(N[C@@H]4CCCCNC4=O)n3n2)cc1 [Example 395, (3R)-3-{[2-(4-Methoxyphenyl)-8-(propan-2-yl)[1,2,4]triazolo[1,5-c]quinazolin-5-yl]amino}azepan-2-one] | –
– | – | C[C@@H](Nc1nc2c(Br)cccc2c2nc(-c3cnn(C)c3)nn12)C(=O)NCC(C)(C)N [Example 790, N-(2-amino-2-methylpropyl)-N^2-[7-bromo-2-(1-methyl-1H-pyrazol-4-yl)[1,2,4]triazolo[1,5-c]quinazolin-5-yl]-D-alaninamide] | IC50 (AHR [1]; firefly luciferase reporter): 4.14e-07 M; IC50 (AHR [2]; [4]): 402 nM
1.11e-06 M | 7300 nM | Cn1cc(-c2nc3c4c(Cl)cccc4nc(N[C@@H]4CNCCNC4=O)n3n2)cn1 [Example 417] | –
5e-08 M | 24.8 nM | CCC[C@@H](Nc1nc2ccccc2c2nc(-c3cc(C(F)(F)F)ccn3)nn12)C(=O)NC [Example 368, N-methyl-N^2-{2-[4-(trifluoromethyl)pyridin-2-yl][1,2,4]triazolo[1,5-c]quinazolin-5-yl}-D-norvalinamide] | –
– | – | CCn1cc(-c2nc3c4cccc(F)c4nc(N[C@@H]4CCCCNC4=O)n3n2)cn1 [Example 834, (3R)-3-{[2-(1-ethyl-1H-pyrazol-4-yl)-7-fluoro[1,2,4]triazolo[1,5-c]quinazolin-5-yl]amino}azepan-2-one] | IC50 (AHR [1]; firefly luciferase reporter): 6.25e-09 M; IC50 (AHR [2]; [4]): 10.7 nM
1.94e-08 M | 69.8 nM | COc1ccc(-c2nc3c4ccccc4nc(NC4CCCNC4=O)n3n2)cc1 (single isomer, unassigned) [Example 38, 3-{[2-(4-methoxyphenyl)[1,2,4]triazolo[1,5-c]quinazolin-5-yl]amino}piperidin-2-one] | –
4.49e-06 M | 11700 nM | COc1cccc2c1nc(N[C@@H]1CCCCNC1=O)n1nc(-c3cn(C)nn3)nc21 [Example 756, (3R)-3-{[7-methoxy-2-(1-methyl-1H-1,2,3-triazol-4-yl)[1,2,4]triazolo[1,5-c]quinazolin-5-yl]amino}azepan-2-one] | –
– | – | COc1ccc(-c2nc3c4cccc(Br)c4nc(N[C@H](C)C(=O)N4CC5(COC5)C4)n3n2)cc1 [Example 916, (2R)-2-{[7-bromo-2-(4-methoxyphenyl)[1,2,4]triazolo[1,5-c]quinazolin-5-yl]amino}-1-(2-oxa-6-azaspiro[3.3]heptan-6-yl)propan-1-one] | IC50 (AHR [1]; firefly luciferase reporter): 1.06e-09 M; IC50 (AHR [2]; read-out: AHR Antagonism Mouse IC50, Hepa 1c1c7 cells, 200 μM kynurenic acid, 20 hours, firefly luciferase reporter): 2.22 nM
5.44e-08 M | 105 nM | O=C1NCCCC1Nc1nc2ccccc2c2nc(-c3cccc(F)c3)nn12 (stereo not shown) [Example 8, 3-{[2-(3-fluorophenyl)[1,2,4]triazolo[1,5-c]quinazolin-5-yl]amino}piperidin-2-one] | –
9.83e-10 M | 1.47 nM | COc1ccc(-c2nc3c4cccc(Br)c4nc(N[C@@H]4COCCNC4=O)n3n2)cc1 [Example 699, (6R)-6-{[7-bromo-2-(4-methoxyphenyl)[1,2,4]triazolo[1,5-c]quinazolin-5-yl]amino}-1,4-oxazepan-5-one] | –
8.12e-07 M | 2.41 nM | COc1cccc(-c2nc3c4ccc(F)cc4nc(N[C@@H]4CCCCNC4=O)n3n2)c1 [Example 148, (3R)-3-{[8-fluoro-2-(3-methoxyphenyl)[1,2,4]triazolo[1,5-c]quinazolin-5-yl]amino}azepan-2-one] | –
5.01e-07 M | > 20000 nM | Cn1cc(-c2nc3c4cc(Br)cc(Br)c4nc(N[C@@H]4CCCCNC4=O)n3n2)cn1 [Example 594, (3R)-3-{[7,9-dibromo-2-(1-methyl-1H-pyrazol-4-yl)[1,2,4]triazolo[1,5-c]quinazolin-5-yl]amino}azepan-2-one] | –

SMILES | IC50 (AHR [1]) | IC50 (AHR [2]; [3]) | further results
COc1ccc(-c2nc3c4cccc(O)c4nc(N[C@@H]4CCCCNC4=O)n3n2)cc1 [Example 669, (3R)-3-{[7-hydroxy-2-(4-methoxyphenyl)[1,2,4]triazolo[1,5-c]quinazolin-5-yl]amino}azepan-2-one] | 1.99e-09 M | – | IC50 (AHR [2]; [5]): 4.96 nM
Cn1cc(-c2nc3c4c(Cl)cccc4nc(N[C@@H]4CCCCNC4=O)n3n2)cn1 [Example 169, (3R)-3-{[10-chloro-2-(1-methyl-1H-pyrazol-4-yl)[1,2,4]triazolo[1,5-c]quinazolin-5-yl]amino}azepan-2-one] | 7.27e-09 M | – | IC50 (AHR [2]; [5]): 118 nM
